Key:
[1] = system: middle cerebral artery (MCA) occlusion model mice; assay: Evaluation of therapeutic effect on ischemia-reperfusion brain damage (MCA occlusion model, single i.v. dose after reperfusion); assay type: in vivo, male ddY mice; conditions: infarct volume at 24 h
Description: Thus, a model evaluated for therapeutic effect of ischemia-reperfusion brain damage was constructed by administering a drug after reperfusion in the MCA occlusion model, and the effect of the test compound as a therapeutic drug was investigated: the therapeutic effect evaluation model reflects the direct damage by reactive oxygen species (ROIs) and the process to the secondary oxidative stress and inflammatory response due to ROIs. (2) Evaluation Method for Therapeutic Effect of Ischemia-Reperfusion Brain Damage With the use of male ddY mice (25-30 g, 6-7 weeks old), middle cerebral artery (MCA) occlusion model mice were prepared according to the method of Koizumi et al. (“Strokes”, Vol. 8, pp 1-8, 1986). The MCA occlusion was 4 hours, and a single dose of drug solution was intravenously administered 6 or 10 hours after the start of ischemia (i.e., 2 hours or […]). Brain slice samples were prepared 24 hours after the start of infarction and stained with triphenyltetrazolium chloride (TTC staining), and then the cerebral infarct volume was measured from the brain slice samples by image processing.

[2] = system: middle cerebral artery (MCA) occlusion model mice; assay: Evaluation of preventive effect on ischemia-reperfusion brain damage (MCA occlusion model, drug i.v. immediately before and 3 h after infarction); assay type: in vivo, male ddY mice; conditions: 4 h MCA occlusion, infarct volume 24 h after start of occlusion (TTC)
Description: In addition, a drug was administered immediately before infarction and during infarction in the MCA occlusion model, and the effect as a preventive drug was also investigated.
(1) Evaluation Method for Preventive Effect of Ischemia-Reperfusion Brain Damage
With the use of male ddY mice (25-30 g, 6-7 weeks old), middle cerebral artery (MCA) occlusion model mice were prepared according to the method of Koizumi et al. (“Strokes”, Vol. 8, pp 1-8, 1986). The MCA occlusion was carried out for 4 hours, a test drug solution was intravenously administered twice, namely, immediately before infarction and 3 hours after infarction. Brain slice samples were prepared 24 hours after the start of infarction and stained with triphenyltetrazolium chloride (TTC staining), and then the cerebral infarct volume was measured from the brain slice samples by image processing.

[3] = system: mouse middle cerebral artery (MCA) occlusion model; conditions: i.v. twice, immediately before infarction and during infarction; prophylactic; cited from earlier work
[4] = single i.v. dose 2 μmol/kg 6 hours after start of ischemia
[5] = single i.v. dose 20 μmol/kg 6 hours after start of ischemia
[6] = i.v. 20 mmol/kg×2 doses (so in the source)

Row | Molecule | suppression of the infarct volume [1, 4] | suppression of the infarct volume [1, 5] | suppression of the infarct volume ([2]; i.v. 2 μmol/kg×2 doses) | suppression of the infarct volume ([2]; i.v. 20 μmol/kg×2 doses) | suppression of the infarct volume [2, 6] | suppression of the infarct volume ([1]; single i.v. dose 20 μmol/kg 10 hours after start of ischemia) | infarct inhibitory effect [3]
1 | CC(C)=CCC/C(C)=C/CC/C(C)=C/CC[C@]1(C)CCc2c(C)c(OC(=O)CN(C)C)c(C)c(C)c2O1.Cl [α-T3DMG, 2R-α-tocotrienyl N,N-dimethylglycinate hydrochloride] | significantly suppressed | significantly suppressed | a significant suppression of the infarct volume was observed | a significant suppression of the infarct volume was observed |  |  | 
2 | Cc1c(OC(=O)CN(C)C)cc2c(c1C)O[C@](C)(CCC[C@H](C)CCC[C@H](C)CCCC(C)C)CC2.Cl [γ-TDMG, 2R-γ-tocopheryl N,N-dimethylglycinate hydrochloride] | significantly suppressed | significantly suppressed | a significant suppression of the infarct volume was observed |  | a significant suppression of the infarct volume was observed |  | 
3 | 2R-γ-tocopheryl phosphate disodium salt [γ-TPS] |  | a significant suppression of the infarct volume was observed |  |  |  |  | 
4 | CC(C)=CCCC(C)=CCCC(C)=CCOC(=O)CN(C)C.Cl [FODMG, farnesol N,N-dimethylglycinate hydrochloride] |  | significantly suppressed | significantly suppressed |  | significantly suppressed | significantly suppressed | 
5 | Cc1c(O)cc2c(c1C)O[C@](C)(CCC[C@H](C)CCC[C@H](C)CCCC(C)C)CC2 [γ-Toc, 2R-γ-tocopherol, reference compound] | significantly suppressed | significantly suppressed | significantly suppressed | significantly suppressed |  |  | excellent infarct inhibitory effect
6 | CC(C)=CCC/C(C)=C/CC/C(C)=C/CO [FO, (2E,6E) farnesol, reference compound] |  |  | significant suppression of the infarct volume was not observed | significantly suppressed |  |  | 
7 | Cc1c(C)c2c(c(C)c1O)CC[C@@](C)(CCC[C@H](C)CCC[C@H](C)CCCC(C)C)O2 [α-Toc, 2R-α-tocopherol, reference compound] |  |  | a significant suppression of the infarct volume was not observed | significantly suppressed |  |  | 
8 | CC(C)=CCC/C(C)=C/CC/C(C)=C/CC[C@]1(C)CCc2c(C)c(O)c(C)c(C)c2O1 [α-T3, 2R-α-tocotrienol] |  |  |  |  |  |  | excellent infarct inhibitory effect
9 | CC1=NN(c2ccccc2)C(=O)C1 [edaravone, reference compound] |  |  | significantly suppressed | a significant effect was not observed |  |  | 
